Results as given in patent publication US10722501B2 (BAYER AKTIENGESELLSCHAFT, priority 2016, dated 2020).
pIC50: −log10 of the molar value.

Molecular target: T1, recombinant full-length human prolyl endopeptidase (PREP) (Homo sapiens, UniProt P48147)
T1 construct: To recombinant full-length human prolyl endopeptidase (PREP, R&D-Systems, 4308-SE); purchased R&D-Systems 4308-SE
T1 sequence (P48147 1-710): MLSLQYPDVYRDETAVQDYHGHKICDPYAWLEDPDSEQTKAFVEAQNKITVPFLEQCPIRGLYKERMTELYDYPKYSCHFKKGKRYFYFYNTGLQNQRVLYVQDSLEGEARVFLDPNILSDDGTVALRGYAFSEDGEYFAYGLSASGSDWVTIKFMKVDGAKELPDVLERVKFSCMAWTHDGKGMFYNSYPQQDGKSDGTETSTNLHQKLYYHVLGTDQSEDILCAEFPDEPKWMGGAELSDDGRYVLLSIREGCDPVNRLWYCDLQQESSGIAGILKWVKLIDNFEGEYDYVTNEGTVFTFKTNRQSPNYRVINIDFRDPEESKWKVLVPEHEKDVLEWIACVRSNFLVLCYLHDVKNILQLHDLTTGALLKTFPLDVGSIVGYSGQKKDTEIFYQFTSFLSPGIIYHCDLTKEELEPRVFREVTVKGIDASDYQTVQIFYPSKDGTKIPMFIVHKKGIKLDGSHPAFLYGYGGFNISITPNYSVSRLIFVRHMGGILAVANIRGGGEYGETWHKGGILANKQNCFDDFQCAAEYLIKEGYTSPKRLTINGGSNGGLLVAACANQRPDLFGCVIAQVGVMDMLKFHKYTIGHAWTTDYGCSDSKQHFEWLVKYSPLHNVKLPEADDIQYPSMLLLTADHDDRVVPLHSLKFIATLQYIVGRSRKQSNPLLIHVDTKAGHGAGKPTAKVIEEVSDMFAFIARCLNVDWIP
Assay: Biochemical human prolyl endopeptidase (PREP) assay with fluorescently labelled substrate
Conditions: substrate Z-Gly-Pro-AMC 50 μM, 32° C., 60 min; some as mean values from multiple independent determinations
Method in brief: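 0.4 nM (final, example) recombinant PREP in pH 7.5 Tris buffer with EDTA, GSH, BSA and Brij-35; compounds at 1 nM to 30 μM. Reaction started with 50 μM Z-Gly-Pro-AMC and followed by fluorescence (ex 360/em 465 nm) at 32° C for 60 min. IC50 interpolated from percent activity based on initial slopes.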

| pIC50 | Structure (SMILES) |
| --- | --- |
| 9.06 | O=C([C@@H]1CCCc2nn(Cc3cc4cccnc4nc3C(F)(F)F)c(=O)n21)N1CC[C@H](F)C1 [Example 419, (5S)-5-{[(3S)-3-Fluoropyrrolidin-1-yl]carbonyl}-2-{[2-(trifluoromethyl)-1,8-naphthyridin-3-yl]methyl}-5,6,7,8-tetrahydro[1,2,4]triazolo[4,3-a]pyridin-3(2H)-one] |
| 8.84 | O=C([C@@H]1CCCc2nn(Cc3nccc(C(F)(F)F)c3Cl)c(=O)n21)N1CC(F)C1 [Example 389, (5S)-2-{[3-Chloro-4-(trifluoromethyl)pyridin-2-yl]methyl}-5-[(3-fluoroazetidin-1-yl)carbonyl]-5,6,7,8-tetrahydro[1,2,4]triazolo[4,3-a]pyridin-3(2H)-one] |
| 7.57 | O=C([C@@H]1CCCc2nn(Cc3nc(C(F)(F)F)no3)c(=O)n21)N1CC(F)C1 [Example 540, (5S)-5-[(3-Fluoroazetidin-1-yl)carbonyl]-2-{[3-(trifluoromethyl)-1,2,4-oxadiazol-5-yl]methyl}-5,6,7,8-tetrahydro[1,2,4]triazolo[4,3-a]pyridin-3(2H)-one] |
| 8.10 | O=C(C1CCCc2nn(Cc3ccc(C(F)(F)F)nc3)c(=O)n21)N1CC[C@@H](F)C1 (mixture of isomers) [Example 100, (5RS)-5-{[(3R)-3-Fluoropyrrolidin-1-yl]carbonyl}-2-{[6-(trifluoromethyl)pyridin-3-yl]methyl}-5,6,7,8-tetrahydro[1,2,4]triazolo[4,3-a]pyridin-3(2H)-one] |
| 8.68 | O=C(C1CCCc2nn(Cc3ccc(C(F)(F)F)nc3)c(=O)n21)N1CCCC1 (single isomer, unassigned) [Example 85, (5RS)-5-(Pyrrolidin-1-ylcarbonyl)-2-{[6-(trifluoromethyl)pyridin-3-yl]methyl}-5,6,7,8-tetrahydro[1,2,4]triazolo[4,3-a]pyridin-3(2H)-one] |
| 7.07 | O=C(C1C(C(F)(F)F)CCc2nn(Cc3ncc(Cl)cc3F)c(=O)n21)N1C[C@@H](F)[C@@H](F)C1 (single isomer, unassigned) [Example 293] |
| 8.00 | O=C([C@@H]1CCCc2nn(Cc3ccnc(C(F)(F)F)c3F)c(=O)n21)N1CCC2CC21 (mixture of isomers) [Example 205, (5S)-5-[(1 RS,5SR)-2-Azabicyclo[3.1.0]hex-2-ylcarbonyl]-2-{[3-fluoro-2-(trifluoromethyl)pyridin-4-yl]methyl}-5,6,7,8-tetrahydro[1,2,4]triazolo[4,3-a]pyridin-3(2H)-one] |
| 8.68 | O=C([C@@H]1CCCc2nn(Cc3csc(C(F)(F)F)n3)c(=O)n21)N1C[C@@H](F)[C@@H](F)C1 [Example 366, (5S)-5-{[(3R,4S)-3,4-Difluoropyrrolidin-1-yl]carbonyl}-2-{[2-(trifluoromethyl)-1,3-thiazol-4-yl]methyl}-5,6,7,8-tetrahydro[1,2,4]triazolo[4,3-a]pyridin-3(2H)-one] |
| 8.11 | O=C([C@@H]1CCCc2nn(Cc3ncc(F)cc3F)c(=O)n21)N1CC(F)C1 [Example 410, (5S)-2-[(3,5-Difluoropyridin-2-yl)methyl]-5-[(3-fluoroazetidin-1-yl)carbonyl]-5,6,7,8-tetrahydro[1,2,4]triazolo[4,3-a]pyridin-3(2H)-one] |

Further lines, the molecule ahead of its results:

| Structure (SMILES) | pIC50 |
| --- | --- |
| Cc1ccc(Cn2nc3n(c2=O)C(C(=O)N2CCS(=O)(=O)C2)CCC3)cc1 (single isomer, unassigned) [Example 142, (5RS)-5-[(1,1-Dioxido-1,3-thiazolidin-3-yl)carbonyl]-2-(4-methylbenzyl)-5,6,7,8-tetrahydro[1,2,4]triazolo[4,3-a]pyridin-3(2H)-one] | 8.59 |
| O=C(C1CCCc2nn(Cc3noc(-c4cccc(C(F)(F)F)c4)n3)c(=O)n21)N1CCCC1 (racemic) [Example 69, (5RS)-5-(Pyrrolidin-1-ylcarbonyl)-2-({5-[3-(trifluoromethyl)phenyl]-1,2,4-oxadiazol-3-yl}methyl)-5,6,7,8-tetrahydro[1,2,4]triazolo[4,3-a]pyridin-3(2H)-one] | 6.68 |
| O=C([C@@H]1CCCc2nn(Cc3ncc(F)cc3Cl)c(=O)n21)N1CC[C@H](F)C1 [Example 560, (5S)-2-[(3-Chloro-5-fluoropyridin-2-yl)methyl]-5-{[(3S)-3-fluoropyrrolidin-1-yl]carbonyl}-5,6,7,8-tetrahydro[1,2,4]triazolo[4,3-a]pyridin-3(2H)-one] | 9.37 |
| Cc1ccc(Cn2nc3n(c2=O)[C@H](C(=O)N2CC[C@@H]2C)CCC3)cc1 [Example 148, (5S)-5-{[(2S)-2-Methylazetidin-1-yl]carbonyl}-2-(4-methylbenzyl)-5,6,7,8-tetrahydro[1,2,4]triazolo[4,3-a]pyridin-3(2H)-one] | 7.67 |
| O=C([C@@H]1C[C@@H](C(F)(F)F)Cc2nn(Cc3ccc(C(F)(F)F)nc3)c(=O)n21)N1CC[C@H](F)C1 (single isomer, unassigned) [Example 237] | 9.03 |
| O=C(C1C(C(F)(F)F)CCc2nn(Cc3ncc(Cl)cc3F)c(=O)n21)N1CC[C@H](F)C1 (mixture of isomers) [Example 294, (5RS,6RS)-2-[(5-Chloro-3-fluoropyridin-2-yl)methyl]-5-{[(3S)-3-fluoropyrrolidin-1-yl]carbonyl}-6-(trifluoromethyl)-5,6,7,8-tetrahydro[1,2,4]triazolo[4,3-a]pyridin-3(2H)-one] | 7.70 |
| O=C(C1CC(C(F)(F)F)Cc2nn(Cc3ccc(C(F)(F)F)nc3)c(=O)n21)N1CCC(F)(F)C1 (single isomer, unassigned) [Example 313, (5RS,7RS)-5-[(3,3-Difluoropyrrolidin-1-yl)carbonyl]-7-(trifluoromethyl)-2-{[6-(trifluoromethyl)pyridin-3-yl]methyl}-5,6,7,8-tetrahydro[1,2,4]triazolo[4,3-a]pyridin-3(2H)-one] | 8.40 |
| O=C([C@@H]1CCc2nn(Cc3ccc(F)c(Cl)c3)c(=O)n21)N1CCCC1 [Example 51, (5S)-2-(3-Chloro-4-fluorobenzyl)-5-(pyrrolidin-1-ylcarbonyl)-2,5,6,7-tetrahydro-3H-pyrrolo[2,1-c][1,2,4]triazol-3-one] | 9.05 |
| O=C(C1CC(C(F)(F)F)Cc2nn(Cc3ccc(Cl)nc3)c(=O)n21)N1CC(F)C1 (single isomer, unassigned) [Example 238, (5RS,7RS)-2-[(6-Chloropyridin-3-yl)methyl]-5-[(3-fluoroazetidin-1-yl)carbonyl]-7-(trifluoromethyl)-5,6,7,8-tetrahydro[1,2,4]triazolo[4,3-a]pyridin-3(2H)-one] | 7.14 |
| NS(=O)(=O)c1ccc(Cn2nc3n(c2=O)C(C(=O)N2CCCC2)CCC3)cc1 (racemic) [Example 29, 4-{[(5RS)-3-Oxo-5-(pyrrolidin-1-ylcarbonyl)-5,6,7,8-tetrahydro[1,2,4]triazolo[4,3-a]pyridin-2(3H)-yl]methyl}benzenesulphonamide] | 8.92 |
| O=C(C1CC(C(F)(F)F)Cc2nn(Cc3ncc(Cl)cc3F)c(=O)n21)N1CC[C@H](F)C1 (mixture of isomers) [Example 264, (5RS,7RS)-2-[(5-Chloro-3-fluoropyridin-3-yl)methyl]-5-{[(3S)-3-fluoropyrrolidin-1-yl]carbonyl}-7-(trifluoromethyl)-5,6,7,8-tetrahydro[1,2,4]triazolo[4,3-a]pyridin-3(2H)-one] | 8.59 |
| Cc1ccc(Cn2nc3n(c2=O)[C@H](C(=O)N2CC(F)C2)CCC3)cc1 [Example 113, (5S)-5-[(3-Fluoroazetidin-1-yl)carbonyl]-2-(4-methylbenzyl)-5,6,7,8-tetrahydro[1,2,4]triazolo[4,3-a]pyridin-3(2H)-one] | 9.38 |
| Cc1ccc(Cn2nc3n(c2=O)C(C(=O)N2CCC(F)(CO)C2)CCC3)cc1 (mixture of isomers) [Example 147, (5S)-5-{[(3RS)-3-Fluoro-3-(hydroxymethyl)pyrrolidin-1-yl]carbonyl}-2-(4-methylbenzyl)-5,6,7,8-tetrahydro[1,2,4]triazolo[4,3-a]pyridin-3(2H)-one] | 7.15 |
| O=C(C1CCCc2nn(Cc3cc(F)c(F)cc3F)c(=O)n21)N1CCCC1 (racemic) [Example 89, (5RS)-5-(Pyrrolidin-1-ylcarbonyl)-2-(2,4,5-trifluorobenzyl)-5,6,7,8-tetrahydro[1,2,4]triazolo[4,3-a]pyridin-3(2H)-one] | 8.89 |
| O=C([C@@H]1CCC(F)(F)c2nn(Cc3ccc(Cl)nc3)c(=O)n21)N1CCC(F)(F)C1 [Example 557, (5S)-2-[(6-Chloropyridin-3-yl)methyl]-5-[(3,3-difluoropyrrolidin-1-yl)carbonyl]-8,8-difluoro-5,6,7,8-tetrahydro[1,2,4]triazolo[4,3-a]pyridin-3(2H)-one] | 8.49 |
| Cc1ccc(Cn2nc3n(c2=O)[C@H](C(=O)N2CCC[C@H]2C#N)CCC3)cc1 [Example 109, (2S)-1-{[(5S)-2-(4-Methylbenzyl)-3-oxo-2,3,5,6,7,8-hexahydro[1,2,4]triazolo[4,3-a]pyridin-5-yl]carbonyl}pyrrolidine-2-carbonitrile] | 9.68 |
